In patent US9844542B2, “Substituted imidazopyridine and triazolopyridine compounds as negative allosteric modulators of mGluR5” (Vanderbilt University, priority 2013, dated 2017):
Values joined by “and” are separate entries in the source; they are usually repeats but may differ in a detail not shown here. Equal values may be shown once.

Molecular target: T1, rat mGluR5 (Rattus norvegicus, UniProt P31424)
T1 construct: expressed in transfected cells
Assay: mGluR5 calcium mobilization assay (FDSS, Fluo-4) in HEK 293A cells stably expressing rat mGluR5
Assay type: cell-based
Details: HEK cells transfected with rat mGluR5; antagonism of glutamate EC80 response; ± = standard error of at least three experiments
Protocol: Human embryonic kidney (HEK) cells transfected with rat or human mGluR5 were plated in clear bottom assay plates for assay in a Functional Drug Screening System (FDSS). The cells were loaded with a Ca^2+-sensitive fluorescent dye (e.g., Fluo-4), and the plates were washed and placed in the FDSS instrument. Test compound was applied to cells 3 seconds after baseline readings were taken. Cells were incubated with the test compounds for 140 seconds and then stimulated with an EC20 concentration of an mGluR5 agonist (e.g., glutamate, 3,5-dihydroxyphenylglycine, or quisqualate); 60-80 seconds later an EC80 concentration of agonist was added and readings taken for an additional 40 seconds. Data were collected at 1 Hz. […] Concentration response curves were generated using a four parameter logistical equation.
The above described assay was operated in two modes. In the first mode (utilizing a triple add protocol), a range of concentrations of the present compounds were added to cells, followed by two single fixed concentrations of agonist (EC20 followed by EC80). If a compound acted as a potentiator, an EC50 value for potentiation of the EC20 response and a maximum extent of potentiation by the compound at this concentration of agonist was determined by non-linear curve fitting. If a compound acted as an antagonist, an IC50 value for antagonism of the EC80 response and a maximum extent of antagonism by the compound at this concentration of agonist was determined by non-linear curve fitting. In the second mode (utilizing a double add protocol), several fixed concentrations of the present compounds were added to various wells on a plate, followed by a range of concentrations of agonist for each concentration of present compound; the EC50 values for the agonist at each concentration of compound were determined by nonlinear curve fitting. A decrease in the EC50 value of the agonist with increasing concentrations of the present compounds (a leftward shift of the agonist concentration-response curve) is an indication of the degree of mGluR5 positive allosteric modulation at a given concentration of the present compound. An increase in the EC50 value of the agonist with increasing concentrations of the present compounds (a rightward shift of the agonist concentration response curve) is an indication of the degree of mGluR5 antagonism at a given concentration of the present compound. The second mode also indicates whether the present compounds also affect the maximum response to mGluR5 to agonists.
The mGluR5 activity was determined using the calcium mobilization assays in human embryonic kidney cells as described herein below, wherein the human embryonic kidney cells were transfected with rat mGluR5. The mGluR5 activity data for some compounds are shown as the average of at least three experiments with the standard error in these cases. If no error is indicated for the mGluR5 activity, the values given represent the results from a single experiment or the average of two experiments. The compounds in Table 1 were synthesized with methods identical or analogous to those shown herein. The requisite starting materials were commercially available, described in the literature, or readily synthesized by one skilled in the art of organic synthesis.
GluMax is the amplitude of response in the presence of 30 μM test compound as a percentage of maximal response (100 μM glutamate). Partial antagonists display concentration-response curves (CRCs) that plateau above 10%.
The preparation of rat mGluR5 stable cell-lines is as previously described (e.g. see Romano et al. J Biol. Chem. 1996 Nov. 8; 271(45):28612-6).

T1 sequence (P31424 21-1171 isoform P31424-2 limits assumed): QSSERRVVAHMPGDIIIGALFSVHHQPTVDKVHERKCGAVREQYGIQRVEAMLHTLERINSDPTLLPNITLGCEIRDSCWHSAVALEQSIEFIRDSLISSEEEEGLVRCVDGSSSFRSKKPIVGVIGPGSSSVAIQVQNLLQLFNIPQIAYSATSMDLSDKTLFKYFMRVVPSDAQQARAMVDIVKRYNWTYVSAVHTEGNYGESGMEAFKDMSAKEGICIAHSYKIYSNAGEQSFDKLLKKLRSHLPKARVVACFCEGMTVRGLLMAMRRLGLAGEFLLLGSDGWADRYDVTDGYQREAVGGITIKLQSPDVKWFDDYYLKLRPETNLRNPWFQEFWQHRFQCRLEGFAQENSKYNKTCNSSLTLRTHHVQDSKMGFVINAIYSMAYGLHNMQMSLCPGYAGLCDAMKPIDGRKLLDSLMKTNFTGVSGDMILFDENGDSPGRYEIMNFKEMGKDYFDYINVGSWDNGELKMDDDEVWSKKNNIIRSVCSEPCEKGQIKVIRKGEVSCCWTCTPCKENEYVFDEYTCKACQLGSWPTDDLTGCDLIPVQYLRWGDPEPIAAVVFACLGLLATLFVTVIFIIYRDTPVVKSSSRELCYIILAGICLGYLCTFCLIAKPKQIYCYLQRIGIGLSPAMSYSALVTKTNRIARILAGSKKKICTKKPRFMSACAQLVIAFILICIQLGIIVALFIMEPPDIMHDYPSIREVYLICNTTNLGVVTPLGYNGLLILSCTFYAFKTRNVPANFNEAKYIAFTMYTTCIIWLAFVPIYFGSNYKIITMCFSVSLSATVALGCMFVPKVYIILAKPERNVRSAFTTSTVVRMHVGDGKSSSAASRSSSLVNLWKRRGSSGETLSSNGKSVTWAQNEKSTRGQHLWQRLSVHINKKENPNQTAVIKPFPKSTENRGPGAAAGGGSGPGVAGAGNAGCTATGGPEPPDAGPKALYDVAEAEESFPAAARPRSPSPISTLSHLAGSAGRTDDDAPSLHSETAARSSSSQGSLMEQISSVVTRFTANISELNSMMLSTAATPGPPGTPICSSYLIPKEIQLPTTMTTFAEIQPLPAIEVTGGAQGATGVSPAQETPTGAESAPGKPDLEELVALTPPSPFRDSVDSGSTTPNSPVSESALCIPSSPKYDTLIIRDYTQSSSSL

IC50 | SMILES
0.258 µM | COc1cncc(Oc2cc(C(=O)Nc3cccc(F)n3)c3ncnn3c2)c1
0.162 µM | COc1cccc(NC(=O)c2cc(Oc3cncnc3)cn3cnnc23)n1
0.073 µM | Cc1cccc(NC(=O)c2cc(Oc3cncc(F)c3)cn3cnnc23)n1
1.23 µM | [2H]c1nc(NC(=O)c2cc(Oc3cncc(OC)c3)cn3cnnc23)c([2H])c([2H])c1[2H]
0.08 µM | COc1cncc(Oc2cc(C(=O)Nc3cccc(C)n3)c3nccn3c2)c1
> 10 µM | COc1ccc(NC(=O)c2cc(Oc3cnc(C)nc3)cn3cnnc23)nc1
0.218 µM | COc1cncc(Oc2cc(C(=O)Nc3ccc(C)cn3)c3ncnn3c2)c1
0.897 µM | COc1cncc(Oc2cc(C(=O)Nc3ccccn3)c3nncn3c2)c1
0.189 µM | Cc1nc(NC(=O)c2cc(Oc3cncc(F)c3)cn3ccnc23)ccc1F
0.142 µM | COc1ccc(NC(=O)c2cc(Oc3cccnc3)cn3ncnc23)nc1
0.236 µM | COc1cccc(NC(=O)c2cc(Oc3cncc(Cl)c3)cn3ncnc23)n1
0.193 µM | Cc1csc(NC(=O)c2cc(Oc3cncc(C#N)c3)cn3ncnc23)n1
0.695 µM | Cc1cccc(NC(=O)c2cc(Oc3cncc(Cl)c3)cn3cnnc23)n1
0.039 µM | O=C(Nc1ccc(F)cn1)c1cc(Oc2cncc(Cl)c2)cn2ncnc12
0.076 µM | O=C(Nc1ccc(F)cn1)c1cc(Oc2cncc(Cl)c2)cn2ccnc12
5.78 µM | Cc1ncc(Oc2cc(C(=O)Nc3cccc(F)n3)c3nccn3c2)cn1
0.217 µM | [2H]c1nc(NC(=O)c2cc(Oc3cncc(Cl)c3)cn3cnnc23)c([2H])c([2H])c1[2H]
4.13 µM | COc1cncc(Oc2cc(C(=O)Nc3cccc(F)n3)c3nncn3c2)c1
0.082 µM | COc1ccc(NC(=O)c2cc(Oc3cncc(F)c3)cn3cnnc23)nc1
0.043 µM | [2H]c1nc(NC(=O)c2cc(Oc3cncc(F)c3)cn3ncnc23)c([2H])c([2H])c1[2H]
0.028 µM | O=C(Nc1ccccn1)c1cc(Oc2cccnc2)cn2ncnc12
0.032 µM | O=C(Nc1cccc(F)n1)c1cc(Oc2cccnc2)cn2ncnc12

IC50 | SMILES
0.045 µM | [2H]c1nc(NC(=O)c2cc(Oc3cncc(F)c3)cn3cnnc23)c([2H])c([2H])c1[2H]
0.062 µM | O=C(Nc1cccc(F)n1)c1cc(Oc2cncc(Cl)c2)cn2ncnc12
> 10 µM | Cc1ncc(Oc2cc(C(=O)Nc3ccc(F)cn3)c3nncn3c2)cn1
0.042 µM | O=C(Nc1cccc(F)n1)c1cc(Oc2cncc(F)c2)cn2ccnc12
0.025 µM | O=C(Nc1ccc(F)cn1)c1cc(Oc2cccnc2)cn2ncnc12
0.105 µM | N#Cc1cncc(Oc2cc(C(=O)Nc3ccccn3)c3ncnn3c2)c1
0.469 µM | [2H]c1nc(NC(=O)c2cc(Oc3cncnc3)cn3cnnc23)c([2H])c([2H])c1[2H]
0.624 µM | COc1ccc(NC(=O)c2cc(Oc3cncc(Cl)c3)cn3cnnc23)nc1
1.31 µM | Cc1ccc(NC(=O)c2cc(Oc3cncc(F)c3)cn3c(C)nnc23)nc1
> 10 µM | Cc1ncc(Oc2cc(C(=O)Nc3ccc(F)c(C)n3)c3nncn3c2)cn1
0.674 µM | Cc1cccc(NC(=O)c2cc(Oc3cncnc3)cn3cnnc23)n1
0.11 µM | Cc1csc(NC(=O)c2cc(Oc3cc(F)cnc3F)cn3ncnc23)n1
3.97 µM | COc1ccc(NC(=O)c2cc(Oc3cncc(OC)c3)cn3cnnc23)nc1
0.059 ± 0.011 µM | O=C(Nc1ccc(F)cn1)c1cc(Oc2cnc(F)c(F)c2)cn2ncnc12
0.248 µM | CCc1cccc(NC(=O)c2cc(Oc3cncc(F)c3)cn3ccnc23)n1
0.086 µM | O=C(Nc1ccccn1)c1cc(Oc2cc(F)cnc2F)cn2ncnc12
0.172 µM | Cc1nnc2c(C(=O)Nc3ccccn3)cc(Oc3cncc(F)c3)cn12
0.023 µM and 0.025 µM | O=C(Nc1ccc(F)cn1)c1cc(Oc2cncc(F)c2)cn2ncnc12 [drawing 179]
0.041 ± 0.002 µM | O=C(Nc1ccc(F)cn1)c1cc(Oc2cncc(F)c2F)cn2ncnc12
0.168 µM | CCc1cccc(NC(=O)c2cc(Oc3cncc(F)c3)cn3cnnc23)n1
0.032 µM | O=C(Nc1ccccn1)c1cc(Oc2cncc(Cl)c2)cn2ncnc12
3.71 µM | Cc1ncc(Oc2cc(C(=O)Nc3ccc(F)cn3)c3nccn3c2)cn1

Tested on: male Harlan CD-1 mice
Assay: not given
Details: literature; cited from earlier work

SMILES | effect in marble burying model
Cc1cccc(C#Cc2ccccc2)n1 [MPEP, 2-methyl-6-(phenylethynyl) pyridine] | effective
CN1CC(=O)N=C1NC(=O)Nc1cccc(Cl)c1 [fenobam, 1-(3-chlorophenyl)-3-(1-methyl-4-oxo-4,5-dihydro-1H-imidazol-2-yl)urea] | effective

Tested on: N-methyl-D-aspartate (NMDA) receptor
Assay: not given
Details: at higher concentrations; cited from earlier work

SMILES | NMDA receptor activity
Cc1cccc(C#Cc2ccccc2)n1 [MPEP, 2-methyl-6-(phenylethynyl) pyridine] | directly inhibit

Molecular target: mGluR4 (Homo sapiens, UniProt Q14833)
Assay: not given
Details: cited from earlier work

Chain of mGluR4 (Q14833 33-912): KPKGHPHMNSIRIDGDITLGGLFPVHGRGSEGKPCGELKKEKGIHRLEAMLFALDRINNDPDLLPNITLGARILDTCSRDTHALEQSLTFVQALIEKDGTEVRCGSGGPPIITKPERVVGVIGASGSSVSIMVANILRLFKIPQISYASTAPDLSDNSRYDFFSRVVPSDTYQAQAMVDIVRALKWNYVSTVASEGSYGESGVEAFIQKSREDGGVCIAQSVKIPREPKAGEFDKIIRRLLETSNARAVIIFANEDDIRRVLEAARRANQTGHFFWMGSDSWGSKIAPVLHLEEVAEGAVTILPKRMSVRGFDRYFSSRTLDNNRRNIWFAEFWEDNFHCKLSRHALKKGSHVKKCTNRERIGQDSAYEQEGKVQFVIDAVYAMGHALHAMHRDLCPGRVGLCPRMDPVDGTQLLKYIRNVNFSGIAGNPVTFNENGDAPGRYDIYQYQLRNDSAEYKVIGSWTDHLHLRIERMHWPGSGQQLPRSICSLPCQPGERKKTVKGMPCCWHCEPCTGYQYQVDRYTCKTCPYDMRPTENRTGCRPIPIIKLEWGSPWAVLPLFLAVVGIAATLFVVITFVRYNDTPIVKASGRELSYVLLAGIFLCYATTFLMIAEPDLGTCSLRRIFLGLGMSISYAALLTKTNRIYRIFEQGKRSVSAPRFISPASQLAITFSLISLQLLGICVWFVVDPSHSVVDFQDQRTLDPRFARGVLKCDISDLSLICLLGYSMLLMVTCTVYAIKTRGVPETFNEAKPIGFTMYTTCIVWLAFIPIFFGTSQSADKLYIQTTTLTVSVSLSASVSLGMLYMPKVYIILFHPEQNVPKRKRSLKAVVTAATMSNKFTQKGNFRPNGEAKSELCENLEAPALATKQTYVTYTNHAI

SMILES | activity at mGluR4
Cc1cccc(C#Cc2ccccc2)n1 [MPEP, 2-methyl-6-(phenylethynyl) pyridine] | positive allosteric modulator

Molecular target: T2, cytochrome P450 1A2 (Homo sapiens, UniProt P05177)
T2 sequence (P05177 1-516): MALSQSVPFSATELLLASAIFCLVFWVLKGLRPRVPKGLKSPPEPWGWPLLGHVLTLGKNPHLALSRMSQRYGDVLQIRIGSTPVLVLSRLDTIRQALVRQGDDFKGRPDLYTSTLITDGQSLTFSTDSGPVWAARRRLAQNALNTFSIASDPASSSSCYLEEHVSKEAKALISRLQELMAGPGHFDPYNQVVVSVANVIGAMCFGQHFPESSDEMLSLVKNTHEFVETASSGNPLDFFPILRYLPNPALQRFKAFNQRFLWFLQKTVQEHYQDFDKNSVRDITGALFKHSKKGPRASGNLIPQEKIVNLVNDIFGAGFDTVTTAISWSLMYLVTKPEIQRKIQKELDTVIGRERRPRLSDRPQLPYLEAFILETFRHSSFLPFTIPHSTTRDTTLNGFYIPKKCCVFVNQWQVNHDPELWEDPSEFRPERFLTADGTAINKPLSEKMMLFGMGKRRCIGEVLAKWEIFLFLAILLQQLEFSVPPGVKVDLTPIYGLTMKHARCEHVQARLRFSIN
Assay: not given
Details: cited from earlier work

SMILES | cytochrome P450 1A2 inhibition
Cc1nc(C#Cc2cccnc2)cs1 [MTEP, 3-[(2-methyl-1,3-thiazol-4-yl)ethynyl]pyridine] | potent inhibitor

Tested on: not given
Assay: not given
Details: intravenous administration, rhesus monkeys; cited from earlier work

SMILES | clearance
Cc1nc(C#Cc2cccnc2)cs1 [MTEP, 3-[(2-methyl-1,3-thiazol-4-yl)ethynyl]pyridine] | efficiently cleared
